# Several values for one entry are separate records, joined by “and”; a condition that tells them apart may be missing. Equal entries are not always repeated. Entries after “also recorded” stand apart in the source; their conditions may differ.
# Tests used:
# [1] = system: thymidine uptake (nucleoside transport, es and ei equilibrative carriers) in L1210 cells; assay: Nucleoside transport inhibition assay (thymidine uptake, rapid mixing technique); assay type: cell-based, murine; conditions: for IC50: absence of AGP, point-to-point curve; for IC50 / % inhibition of thymidine uptake: L1210
# Description: Antimetabolite inhibitors of de novo purine and pyrimidine synthesis are used extensively in cancer chemotherapeutic regimes (Schilsky, 1992). In particular, inhibition of thymidylate synthase (TS) is an attractive target for antimetabolite chemotherapy because thymine is the only nucleobase found exclusively in DNA and TS is a key enzyme, possibly the rate-limiting step, in DNA synthesis. One locus of action of 5-fluorouracil (5-FU), which is widely used for the treatment of colorectal, breast and head-and- neck cancer, is TS inhibition following its intracellular conversion to 5-FdUMP. […] Inhibition of TS results in the depletion of intracellular dTTP and, as a result of elevated dUMP levels, an accummulation of dUTP. This nucleotide pool imbalance contributes to DNA strand breakage and cell death (Curtin et al, 1991). […] Furthermore, resistance to antimetabolities mediated by nucleoside salvage may increase with malignancy (Fox et al, 1991; Kinsella and Harran, 1991). In addition, release of nucleic acids from dead cells may result in high local concen- trations of salvageable nucleosides and bases in tumours. Salvage of pre-formed nucleosides is dependent on uptake across the plasma membrane into the cell. At physiological nucle- oside concentrations the principal mode of nucleoside uptake is via the es and ei equilibrative carriers, described as such on the basis of their sensitivity (es) or insensitivity (ei) to the transport inhibitor nitrobenzylmercaptopurine riboside (NBMPR). […] Two antifolate TS inhibitors were selected for study: the classical antifolate, CB3717 (N10 -pro- pargyl-5,8-dideazafolic acid), and the non-classical antifolate TS inhibitor, nolatrexed (AG337, Thymitaq, 3,4-dihydro-2-amino- 6-methyl-4-oxo-5-(4-pyridylthio)-quinazoline dihydrochloride) (Webber et al, 1996). In addition, potentiation of the cytotoxicity of 5-FU was investigated. […] MATERIALS AND METHODS Drugs CB3717 (a gift from Zeneca Pharmaceuticals, Alderley Park, UK) was dissolved in 0.15 M sodium hydrogen carbonate and stored at 4C. […] All other chemicals were obtained from Sigma unless stated otherwise. Cell culture Murine leukaemia L1210 cells were used because their nucleoside transport characteristics have been well defined (Crawford et al, 1990). Cells were maintained as exponentially growing cultures (< 8 x 10^5 cells ml-1 ) in RPMI-1640 medium supplemented with 10% (v/v) fetal calf serum (Sigma), at 37C in an atmosphere of 5% carbon dioxide in air. […] For growth inhibition and cytotoxicity assays, cells were adapted to grow in RPMI medium supplemented with 10% (v/v) dialysed serum (dialysed for 24 h at 4C against two changes of 9 volumes of phosphate-buffered saline (PBS) containing 1 g activated charcoal L-1 and a further two changes of 9 volumes of PBS) to remove thymidine. […] Cells were routinely tested to exclude mycoplasma contamination (Chen, 1977). Nucleoside transport inhibition assay Thymidine uptake was assayed in L1210 cells using a modifica- tion of the rapid mixing technique of Wohlheuter et al (1978). The uptake of 100 µM thymidine by […] was followed at 2-second intervals over a 12-second time course in the presence or absence of inhibitor in 1% or 5% (v/v) DMSO. In experiments to determine the effect of AGP, the uptake of thymidine was also measured in the presence of 5 mg ml-1 human AGP (Sigma), which is the upper limit of plasma AGP concentrations in cancer patients, i.e. approx- imately 125 M (Kremer et al, 1988).
# L1210 cells [2] = assay: Growth inhibition assay, CB3717 with or without thymidine and transport inhibitor, 48 h cell count; assay type: cell-based, murine; conditions: for % Control cell growth + 3 M CB3717, + 1 M TdR / % Control cell growth + 3 M CB3717, no TdR / % Control cell growth + 10 M CB3717, + 1 M TdR / % Control cell growth + 10 M CB3717, no TdR: 10 μM transport inhibitor, normalized to inhibitor alone; for potentiation of CB3717 growth inhibition / reversal of thymidine rescue from CB3717 growth inhibition: 1 μM transport inhibitor, data not shown
# L1210 cells [3] = assay: cells; conditions: for CC50: Mus musculus, L1210, 16 h, read-out: LC50; for reduction of nolatrexed LC90: absence of salvageable thymidine, abstract
# Description: (§1) In particular, inhibition of thymidylate synthase (TS) is an attractive target for antimetabolite chemotherapy because thymine is the only nucleobase found exclusively in DNA and TS is a key enzyme, possibly the rate-limiting step, in DNA synthesis. One locus of action of 5-fluorouracil (5-FU), which is widely used for the treatment of colorectal, breast and head-and- neck cancer, is TS inhibition following its intracellular conversion to 5-FdUMP. […] Inhibition of TS results in the depletion of intracellular dTTP and, as a result of elevated dUMP levels, an accummulation of dUTP. […] In addition, release of nucleic acids from dead cells may result in high local concen- trations of salvageable nucleosides and bases in tumours. Salvage of pre-formed nucleosides is dependent on uptake across the plasma membrane into the cell. At physiological nucle- oside concentrations the principal mode of nucleoside uptake is via the es and ei equilibrative carriers, described as such on the basis of their sensitivity (es) or insensitivity (ei) to the transport inhibitor nitrobenzylmercaptopurine riboside (NBMPR). […] In addition, potentiation of the cytotoxicity of 5-FU was investigated. […] All other chemicals were obtained from Sigma unless stated otherwise. […] For growth inhibition and cytotoxicity assays, cells were adapted to grow in RPMI medium supplemented with 10% (v/v) dialysed serum (dialysed for 24 h at 4C against two changes of 9 volumes of phosphate-buffered saline (PBS) containing 1 g activated charcoal L-1 and a further two changes of 9 volumes of PBS) to remove thymidine. […] The uptake of 100 M thymidine by […] was followed at 2-second intervals over a 12-second time course in the presence or absence of inhibitor in 1% or 5% (v/v) DMSO. […] Exponentially growing L1210 cells were washed with and resus- pended in ice-cold transport buffer (130 mM sodium chloride, 5 mM potassium chloride, 1 mM magnesium chloride, 5 mM NaH2 PO4 , 10 mM glucose and 10 mM HEPES pH 7.4) at 2-4 x 10^7 cells ml-1 . […] Transport was initiated by adding 50 l of 300 M thymidine in transport buffer, containing 25 Ci ml-1 [methyl-3 H]thymidine (Sp. Act. 1.5-2.2 TBq mmol-1; Amersham, UK) and 2 Ci ml-1 [U-14 C]sucrose (17-27 GBq mmol-1; Amersham), to each tube in turn at 1-second intervals, giving final concentrations of: […] in transport buffer 5 mg ml-1 AGP, 100 M thymidine and 1% or 5% (v/v) DMSO inhibitor. […] The tubes were immediately centrifuged at 12 000g for 2 min at room temperature causing the cells to pass through the oil and into the KOH. […] Cell number and viability in each assay was determined by haemocytometer counting using trypan blue exclu- sion. After centrifugation the tubes were capped and cut in the oil layer such that the bottom portion (cells solubilized in KOH) fell into a 20 ml scintillation vial. […] The rate of thymidine uptake in the presence and absence of inhibitor was calculated by unweighted linear regres- sion analysis of thymidine uptake (pmol 10-6 cells) vs time (seconds) using GraphPad PRISMTM software (GraphPad Software Inc. San Diego, CA, USA). […] Kt and Tmax values were calculated using the equation describing a one-site binding hyperbola, fitted using GraphPad PRISM software. […] The DMSO concentration was controlled so as to be present at 1% (v/v) in the final incubation. Replicate aliquots of the remaining cell suspension were counted to obtain a time zero cell count.
# [4] = system: thymidine transport (nucleoside transporter) in L1210 cells; assay: Inhibition kinetics of thymidine transport (Kt, Tmax, Dixon plot Ki); conditions: for Ki: read-out: Ki for inhibition of thymidine uptake, L1210, abstract
# Description: as §1
# in vitro = conditions: mouse
# Description: as §1
# human cancer cell lines = system: human cancer cell lines; design: method as in P Smith, manuscript in preparation; conditions: ref P Smith, manuscript in preparation; cited from earlier work
# [5] = inhibitor 1 μM, no AGP, 100 μM thymidine
# [6] = inhibitor 10 μM + 5 mg ml-1 AGP
# [7] = inhibitor 10 μM, no AGP, 100 μM thymidine
# [8] = LC50 alone/LC50 + 1 μM inhibitor
Structure (SMILES),IC50 [1],"% inhibition of thymidine uptake [1, 5] [%]","% inhibition of thymidine uptake [1, 6] [%]","% inhibition of thymidine uptake [1, 7] [%]","% Control cell growth + 3 M CB3717, + 1 M TdR (L1210 cells [2]; 48 h) [%]","% Control cell growth + 3 M CB3717, no TdR (L1210 cells [2]; 48 h) [%]","% Control cell growth + 10 M CB3717, + 1 M TdR (L1210 cells [2]; 48 h) [%]","% Control cell growth + 10 M CB3717, no TdR (L1210 cells [2]; 48 h) [%]",potentiation of CB3717 growth inhibition (L1210 cells [2]),other results
"COCCN(CCOC)c1nc(N2CCCCC2)c2nc(N(CCOC)CCOC)nc(N3CCCCC3)c2n1 [NU3060, 2,6-bis[N,N-di(2-methoxy)ethyl]-4,8-di-piperidino-pyrimidopyrimidine]",2100 nM,29,43,86,59,29,37,3,–,–
"C#CCN(Cc1ccc2nc(N)[nH]c(=O)c2c1)c1ccc(C(=O)N[C@@H](CCC(=O)O)C(=O)O)cc1 [CB3717, N10-propargyl-5,8-dideazafolate, reference compound]",–,–,–,–,–,–,–,–,–,"% Control cell growth, 3 M CB3717, + 1 M TdR (L1210 cells [2]; No inhibitor, 48 h): 104%; % Control cell growth, 3 M CB3717, no TdR (L1210 cells [2]; No inhibitor, 48 h): 40%; % Control cell growth, 10 M CB3717, + 1 M TdR (L1210 cells [2]; No inhibitor, 48 h): 107%; % Control cell growth, 10 M CB3717, no TdR (L1210 cells [2]; No inhibitor, 48 h): 5%"
"O=c1[nH]cc(F)c(=O)[nH]1 [5-FU, 5-fluorouracil]",–,–,–,–,–,–,–,–,–,CC50 (L1210 cells [3]): 3.7 µM
"OCCN(CCO)c1nc(N2CCCCC2)c2nc(N(CCO)CCO)nc(N3CCCCC3)c2n1 [Dipyridamole, 2,6-bis-(diethanolamino)-4,8-di-piperidino-pyrimidopyrimidine]",–,–,–,–,4,4,1,0,modest potentiation,"type of inhibition of thymidine uptake ([4]; L1210): mixed-type inhibition; apparent Tmax of thymidine transport ([4]; in the presence of 0.3 μM inhibitor, L1210): 8.4 pmol/10-6 cells/s; Ki [4]: 280 nM; EF50 (enhancement factor), nolatrexed (L1210 cells [3]; [8]): 1.3; EF90 (enhancement factor), nolatrexed (L1210 cells [3]; LC90 alone/LC90 + 1 μM inhibitor, listed as DP): 7.5 and 6.1; reduction of nolatrexed LC90 (L1210 cells [3]): > threefold; potentiation of 5-FU cytotoxicity (L1210 cells [3]; mouse): Significant potentiation; activity at 16 h, 1 µM (in vitro): 100%; reversal of thymidine rescue from CB3717 growth inhibition (L1210 cells [2]): partial reversal"
"CC1(C)OCC(COc2nc(N3CCCCC3)c3nc(OCC4COC(C)(C)O4)nc(N4CCCCC4)c3n2)O1 (centres unmarked) [NU3026, 2,6-di-(2,2-dimethyl-1,3-dioxolan-4-yl)-methoxy-4,8-di-piperidinopyrimido-pyrimidine]",1200 nM and 1100 nM,47,62,87,26,8,20,1,modest potentiation,–
COc1ccc(CNc2nc(N(CCO)CCO)nc3c(NCc4ccc(OC)cc4)nc(N(CCO)CCO)nc23)cc1 [NU3076],250 nM,56,89,96,–,–,–,–,–,"type of inhibition of thymidine uptake ([4]; L1210): mixed-type inhibition; Ki [4]: 100 nM; block of thymidine rescue from TS inhibitor cytotoxicity (human cancer cell lines): can block thymidine rescue; effect of AGP on inhibition of thymidine uptake ([1]; AGP 5 mg ml-1, inhibitor 1 and 10 μM): not significantly affected; % inhibition of thymidine uptake ([1]; inhibitor 1 μM + 5 mg ml-1 AGP): 46%; cell survival, inhibitor alone (cytotoxic per se) (L1210 cells [3]; 1 μM inhibitor alone, L1210): 100%; prevention of thymidine rescue from nolatrexed cytotoxicity (L1210 cells [3]; 1 μM inhibitor, 10 μM nolatrexed + 1 μM thymidine): partially blocked; also recorded: reduced but not blocked completely; potentiation of 5-FU cytotoxicity (L1210 cells [3]; 1 μM inhibitor, high 5-FU concentrations (30 and 100 μM), not significant at lower concentrations): Significant potentiation; EF50 (enhancement factor), 5-FU (L1210 cells [3]; [8]): 1.1; EF50 (enhancement factor), nolatrexed (L1210 cells [3]; [8]): 1.6; EF90 (enhancement factor), 5-FU (L1210 cells [3]; LC90 alone/LC90 + 1 μM inhibitor): 1.3; reduction of nolatrexed LC90 (L1210 cells [3]): > threefold"
"COCC(COc1nc(N2CCCCC2)c2nc(OCC(COC)OC)nc(N3CCCCC3)c2n1)OC (centres unmarked) [NU3059, 2,6-bis-(2,3-dimethoxypropoxy)-4,8-di-piperidino-pyrimidopyrimidine]",1900 nM,38,67,87,10,5,7,0,modest potentiation,reversal of thymidine rescue from CB3717 growth inhibition (L1210 cells [2]): partial reversal
"Cc1ccc2nc(N)[nH]c(=O)c2c1Sc1ccncc1.Cl.Cl [Nolatrexed, 3,4-dihydro-2-amino-6-methyl-4-oxo-5-(4-pyridylthio)-quinazoline dihydrochloride]",–,–,–,–,–,–,–,–,–,"effect of 1 μM thymidine on cytotoxic effect of 10 μM nolatrexed (L1210 cells [3]): completely prevented; cells surviving (L1210 cells [3]; 10 μM nolatrexed alone, 16 h): 10-20%; CC50 (L1210 cells [3]): 3.1 µM"
